# Source: patent US7892767B2, “Phosphospecific chemokine receptor antibodies” (Washington University in St. Louis, priority 2005, dated 2011)
# Key:
# [1] = test system: Daoy medulloblastoma cells; assay: Intracellular cAMP by ELISA, Daoy medulloblastoma cells; assay type: cell-based, human; details: 1 μg/ml CXCL12
# Procedure: (§1) Growth factor and drug treatment. Following serum-starvation for 24 hours, astrocytes, granule cells, U87 cells and Daoy cells, were treated with 1 μg/ml CXCL12 (PeproTech), […] AMD3465 (kind gift from Simon Fricker, AnorMED, Langley, BC, Canada) (200 μM Rolipram (Sigma), or 10 μM Forskolin (Sigma) as indicated.
# cAMP measurement in cell culture. cAMP concentration was measured using a Correlated-EIA™. Enzyme Immunoassay Kit (Assay Designs Inc. MI) according to the manufacturer's instructions. Briefly, U87 or Daoy cells were serum-starved for 24 hours, and treated with CXCL12 (1 μg/ml), Rolipram (200 μM), or forskolin (10 μM). Cells were lysed in 0.1M HCL and particulate matter was removed by centrifugation at >600×g for 10 min. The supernatants were dried down and resuspended in assay buffer.
# (§2) Determination of cAMP concentration. Competitive immunoassay for cAMP concentration was performed exactly as directed by the manufacturer. Absorbance at 405 nm was measured and cAMP concentrations were determined by calculation based on a standard curve. Protein concentrations were measured by colormetric assay (Bio-Rad, Hercules, Calif.) according to the manufacturer's directions. cAMP values were normalized to protein for each sample individually.
# Nf1−/− astrocytes = assay: Cell number by trypan blue exclusion, Nf1−/− astrocytes; assay type: cell-based, mouse; details: CXCL12 0.1 ug/ml (≈10 nM), 24 hours, vs untreated controls
# Procedure: Culture and treatment of primary astrocytes. Primary cultures of astrocytes were prepared from post-natal day two Nf1^flox/flox mice as previously described (134) and in accordance with established Animal Studies Protocols at Washington University School of Medicine. Cultures were infected with adenovirus containing either Cre recombinase (Nf1−/−) or LacZ (Nf1+/+). Primary cultures of astrocytes were grown under standard adherent conditions in serum free media (DMEM/F12 or Neurobasal (Gibco-BRL)) in the presence or absence of 0.1 μg/ml CXCL12 (Peprotech) and 10 μM Forskolin for 24 hours, as indicated. Cell number was determined after 24 hours by trypan blue exclusion and the growth effects of CXCL12 were derived as follows: ((cell number in the presence of CXCL12—cell number cell in the absence of CXCL12)/cell number in the absence of CXCL12)×100.)
# To determine the biological significance of CXCR4 activation to NF1 glioma biology, we next sought to evaluate the regulation of CXCL12 growth effects by neurofibromin in astrocytes. While the true cell of origin of astrocytomas remains unknown, we utilized primary cultures of cortical astrocytes as a model of a normal counterpart to astrocytoma cells. Astrocytes were derived from Nf1^flox/flox mice and rendered Nf1+/+ or Nf1−/− by infection with adenovirus encoding LacZ or Cre recombinase, respectively.
# [2] = test system: cerebellar granule precursor cells (GPCs); assay: Intracellular cAMP by ELISA, primary cerebellar granule precursor cells; assay type: cell-based, mouse; details: 1 μg/ml CXCL12
# Procedure: Primary granule neuron cultures. Primary cultures of purified GPCs were prepared from 6 day-old BALB/C mice as described (58). Cerebella were dissected and meninges were removed. After incubation with 0.1% trypsin (Sigma) in HBSS with 125 units/ml Dnase (Sigma), 0.5 mM EDTA for 20 minutes at 37° C., cells were pelleted and washed three times with HBSS. The final cell suspension was passed through a […] nylon mesh cell strainer (Falcon, Franklin Lakes, Mich.). Cells were diluted to 2×10^6 cells/ml in DMEM/F12 (Gibco BRL, Gaithersburg, Md.) supplemented with N2 (Gibco BRL), 20 mM KCl, and 36 mM glucose.
# as §1, §2
substance,measurement,setting,value
CXCL12: chemokine ligand of CXCR4 (Peprotech),cyclic AMP levels after CXCL12,[1],rapidly declined
same,reduction in cAMP as compared to GPCs (area under the curve),[1],70%
same,increase in cell number,Nf1−/− astrocytes,~14+/−2%
same,change in cAMP levels,[2],little to no change
